# Marks after values point to notes of the source that are not given here.
# Legend:
# E. coli ATCC 25922 [1] = assay: MBC by plating tube contents on Mueller-Hinton medium; type: cell-based
# Protocol: (§1) To evaluate the bactericidal action of the antibacterial composition based on light isotope ^64Zne the minimum bactericidal concentration (MBC) was determined by plating out 0.1 ml of the contents of each tube containing the antibacterial composition on Mueller-Hinton medium. The incubation was at 37° C. for 24 h.
# (§2) The MBC of the test samples was determined as the lowest concentration at which there was no growth on Mueller-Hinton agar medium.
# P. aeruginosa ATCC 27853 [2] = assay: as above; type: cell-based
# Protocol: as §1, §2
# S. aureus ATCC 25923 [3] = assay: as above; type: cell-based
# Protocol: as §1, §2
# S. aureus ATCC 25923 [4] = assay: MIC by serial dilutions in broth (visible growth); type: cell-based;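 further: broth tubes inoculated at about 5×10^5 CFU/ml, incubated 16-24 h at 35 °C in air, growth judged by transmitted light against an unexposed refrigerated inoculum tube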
# Protocol: (§3) The minimum inhibitory concentration (MIC) and minimum bactericidal concentration (MBC) of the antibacterial composition enriched for the light isotope zinc ^64Zne was evaluated in the experiment. […] S. aureus ATCC 25923, E. coli ATCC 25922 and P. aeruginosa ATCC 27853 were used as test cultures.
# (§4) The studies were carried out using the method of serial dilutions in broth. To determine sensitivity of microorganisms to the antibacterial composition, 0.5 ml of broth was placed into each tube. The number of tubes was determined based on the desired number of dilutions and was increased by one for the “negative” control (no test composition). Series of two-fold serial dilutions of the test variants of the antibacterial composition were used and concentrations ranging from 450 mcg ^64Zne/ml to 0.000107 mcg ^64Zne/ml were obtained.
# (§5) Reference test strains of S. aureus ATCC 25923, E. coli ATCC 25922 and P. aeruginosa ATCC 27853 were incubated in Mueller-Hinton liquid broth at 37° C. for 24 hours. Standard bacterial suspension equivalent to 0.5 McFarland standard diluted 100-fold with the broth was used for the inoculation of the tubes after which the concentration of microorganism in it was approximately 10^6 CFU/ml.
# (§6) 0.5 ml of inoculum was added to each tube containing 0.5 ml of the appropriate dilution of a solution of the ^64Zn-enriched salt of interest. […] The final concentration of the microorganism in each tube was approximately 5×10^5 CFU/ml.
# (§7) The tubes were incubated at 35° C. in air for 16-20 or 20-24 hours (depending on the bacterial strain).
# (§8) To determine the presence of microorganism growth the test tubes with inoculum were viewed under transmitted light. Transmitted light was measured by spectrophotometry. The growth of culture in the presence of antibacterial compositions based on ^64Zne was compared with the reference test tube (“negative” control), containing the original inoculum and stored in the refrigerator. The MIC was determined as the lowest concentration of ^64Zne that inhibits visible growth of the microorganism. Both gram-positive (S. aureus) and gram-negative bacteria (P. aeruginosa, E. coli) were used in the experiments described below.
# (§9) That is, ^64Zne in the form of a salt was compared with a composition that contains zinc with a natural distribution of isotopes. […] Relevant samples containing salt of natural zinc with EDDA and natural zinc sulfate were used for the comparison.
# (§10) The following commercial antibacterial medications were used for the study: azithromycin and ceftriaxone and norfloxacin. The initial concentration of 3000 mcg/ml was used for the samples of all the above compounds. […] Serial dilutions of the above antibacterial compounds were also prepared in the same way as for the antibacterial composition of the invention. The same pathogenic strains of S. aureus ATCC 25923, E. coli ATCC 25922, P. aeruginosa ATCC 27853 were used for the study.
# E. coli ATCC 25922 [5] = assay: MIC by serial dilutions in broth (visible growth); type: cell-based;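 further: broth tubes inoculated to about 5×10^5 CFU/ml, incubated at 35 °C for 16-24 h, growth judged by transmitted light versus an untreated inoculum reference tube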
# Protocol: as §3, §4, §5, §6, §7, §8, §9, §10
# P. aeruginosa ATCC 27853 [6] = assay: MIC by serial dilutions in broth (visible growth)
# Protocol: as §3, §4, §5, §6, §7, §8, §9, §10
# [7] = Table 7, ^64Zne vs natural zinc
# [8] = Table 8, ^64Zne vs natural zinc
# [9] = concentration of ^64Zne, Tables 1-5
compound,measurement,setting,value
NC(CC(=O)[O-])C(=O)[O-].[64Zn+2] (racemic) [^64Zne aspartate],MBC,E. coli ATCC 25922 [1]; Table 6,0.73* mcg ^64Zne/ml
same,MBC,P. aeruginosa ATCC 27853 [2]; Table 6,>750 mcg ^64Zne/ml
same,MBC,S. aureus ATCC 25923 [3]; Table 6,0.023* mcg ^64Zne/ml
"O=S(=O)([O-])[O-].[Zn+2] [Natural zinc - sulfate, natural zinc sulfate, reference compound]",MIC,S. aureus ATCC 25923 [4]; [7],93.75 zinc/ml
same,MIC,E. coli ATCC 25922 [5]; [7],187.5 zinc/ml
same,MBC,E. coli ATCC 25922 [1]; [8],>750 mcg zinc/ml
same,MBC,P. aeruginosa ATCC 27853 [2]; [8],>750 mcg zinc/ml
same,MBC,S. aureus ATCC 25923 [3]; [8],>750 mcg zinc/ml
same,MIC,P. aeruginosa ATCC 27853 [6]; [7],750 zinc/ml
"O=C([O-])CC(NCCNC(CC(=O)O)C(=O)O)C(=O)[O-].[64Zn+2] (stereo not drawn) [^64Zne EDDS, ^64Zne salt of ethylenediamine-N,N′-disuccinic acid, chemical name 2-[2-[[(1)-1-carboxy-2-carboxylatoethyl]amino]ethylamino]butanedioate]",MIC,S. aureus ATCC 25923 [4]; [7],0.73 zinc/ml
same,visible growth,S. aureus ATCC 25923 [4]; ^64Zne 0.00036 mcg/ml,+
same,visible growth,S. aureus ATCC 25923 [4]; ^64Zne 0.00072 mcg/ml,+
same,visible growth,S. aureus ATCC 25923 [4]; ^64Zne 0.0014 mcg/ml,+
same,visible growth,S. aureus ATCC 25923 [4]; ^64Zne 0.0029 mcg/ml,+
same,visible growth,S. aureus ATCC 25923 [4]; ^64Zne 0.0057 mcg/ml,+
same,visible growth,S. aureus ATCC 25923 [4]; ^64Zne 0.011 mcg/ml,+
same,visible growth,S. aureus ATCC 25923 [4]; ^64Zne 0.023 mcg/ml,+
same,visible growth,S. aureus ATCC 25923 [4]; ^64Zne 0.046 mcg/ml,+
same,visible growth,S. aureus ATCC 25923 [4]; ^64Zne 0.37 mcg/ml,−
same,visible growth,S. aureus ATCC 25923 [4]; ^64Zne 0.73 mcg/ml,−
same,visible growth,S. aureus ATCC 25923 [4]; ^64Zne 1.46 mcg/ml,−
same,visible growth,S. aureus ATCC 25923 [4]; ^64Zne 2.93 mcg/ml,−
same,visible growth,S. aureus ATCC 25923 [4]; ^64Zne 5.86 mcg/ml,−
same,visible growth,S. aureus ATCC 25923 [4]; ^64Zne 11.72 mcg/ml,−
same,visible growth,S. aureus ATCC 25923 [4]; ^64Zne 23.44 mcg/ml,−
same,visible growth,S. aureus ATCC 25923 [4]; ^64Zne 46.88 mcg/ml,−
same,visible growth,S. aureus ATCC 25923 [4]; ^64Zne 93.75 mcg/ml,−
same,visible growth,S. aureus ATCC 25923 [4]; ^64Zne 187.5 mcg/ml,−
same,visible growth,S. aureus ATCC 25923 [4]; ^64Zne 375 mcg/ml,−
same,visible growth,S. aureus ATCC 25923 [4]; ^64Zne 750 mcg/ml,−
same,MIC,S. aureus ATCC 25923 [4]; [9],0.366 µg/mL
same,MIC,E. coli ATCC 25922 [5]; [7],0.18 zinc/ml
same,visible growth,E. coli ATCC 25922 [5]; ^64Zne 0.00036 mcg/ml,+
same,visible growth,E. coli ATCC 25922 [5]; ^64Zne 0.00072 mcg/ml,+
same,visible growth,E. coli ATCC 25922 [5]; ^64Zne 0.0014 mcg/ml,+
same,visible growth,E. coli ATCC 25922 [5]; ^64Zne 0.0029 mcg/ml,+
same,visible growth,E. coli ATCC 25922 [5]; ^64Zne 0.0057 mcg/ml,+
same,visible growth,E. coli ATCC 25922 [5]; ^64Zne 0.011 mcg/ml,+
same,visible growth,E. coli ATCC 25922 [5]; ^64Zne 0.023 mcg/ml,−
same,visible growth,E. coli ATCC 25922 [5]; ^64Zne 0.046 mcg/ml,−
same,visible growth,E. coli ATCC 25922 [5]; ^64Zne 0.092 mcg/ml,−
same,visible growth,E. coli ATCC 25922 [5]; ^64Zne 0.18 mcg/ml,−
same,visible growth,E. coli ATCC 25922 [5]; ^64Zne 0.37 mcg/ml,−
same,visible growth,E. coli ATCC 25922 [5]; ^64Zne 0.73 mcg/ml,−
same,visible growth,E. coli ATCC 25922 [5]; ^64Zne 1.46 mcg/ml,−
same,visible growth,E. coli ATCC 25922 [5]; ^64Zne 2.93 mcg/ml,−
same,visible growth,E. coli ATCC 25922 [5]; ^64Zne 5.86 mcg/ml,−
same,visible growth,E. coli ATCC 25922 [5]; ^64Zne 11.72 mcg/ml,−
same,visible growth,E. coli ATCC 25922 [5]; ^64Zne 23.44 mcg/ml,−
same,visible growth,E. coli ATCC 25922 [5]; ^64Zne 46.88 mcg/ml,−
same,visible growth,E. coli ATCC 25922 [5]; ^64Zne 93.75 mcg/ml,−
same,visible growth,E. coli ATCC 25922 [5]; ^64Zne 187.5 mcg/ml,−
same,visible growth,E. coli ATCC 25922 [5]; ^64Zne 375 mcg/ml,−
same,visible growth,E. coli ATCC 25922 [5]; ^64Zne 750 mcg/ml,−
same,visible growth,E. coli ATCC 25922 [5]; ^64Zne 1500 mcg/ml,−
same,MIC,E. coli ATCC 25922 [5]; [9],0.0229 µg/mL
same,MBC,E. coli ATCC 25922 [1]; Table 6,2.93* mcg ^64Zne/ml
same,MBC,E. coli ATCC 25922 [1]; [8],2.9296 mcg zinc/ml
same,bactericidal activity (in words),P. aeruginosa ATCC 27853 [2],satisfactory bactericidal activity
same,MBC,P. aeruginosa ATCC 27853 [2]; Table 6,375 mcg ^64Zne/ml
same,MBC,P. aeruginosa ATCC 27853 [2]; [8],375 mcg zinc/ml
same,MBC,S. aureus ATCC 25923 [3]; Table 6,0.73* mcg ^64Zne/ml
same,MBC,S. aureus ATCC 25923 [3]; [8],0.7324 mcg zinc/ml
same,bacteriostatic activity (in words),P. aeruginosa ATCC 27853 [6],best results
same,MIC,P. aeruginosa ATCC 27853 [6]; [7],5.86 zinc/ml
same,MIC,P. aeruginosa ATCC 27853 [6]; [9],1.465 µg/mL

# — patent US12097215B2, “Antibacterial composition and its use in treating bacterial infections” (Vector Vitale IP LLC, priority 2017, dated 2024)
